Laboratory results: patent US10159736B2, “Plant virus particles for delivery of photosensitive agents” (Case Western Reserve University, priority 2016, dated 2018)

Key:
B16F10 = settings: cited from earlier work
RAW 264.7 macrophages = assay: LIVE/DEAD cell viability assay of macrophages after photodynamic therapy; format: cell-based
Experimental: Uptake of PS-CPMV* and its efficacy for PDT of RAW 264.7 murine macrophages was initially tested using a LIVE/DEAD cell viability assay in a 96-well plate. The macrophages were allowed 8 h to take up either PS-CPMV* at a concentration of 5.0 μM PS or CPMV, CPMV*, and PS controls normalized according to PS or CPMV concentration. After washing, PDT was initialized using a mirror setup where light from a projector was reflected on the cell plate for 30 min. Cells were incubated overnight, then stained with a combination of calcein-AM and ethidium homodimer-1 to detect live and dead cells, respectively (FIG. 4a).
RAW 264.7 macrophages were seeded overnight in 96-well plates, with one plate used as a dark control, at a concentration of 10,000 cells/100 μL Dulbecco's modified Eagle's medium (DMEM, Gibco) supplemented with 10% (v/v) fetal bovine serum (FBS, Atlanta Biologicals) and 1% (v/v) penicillin-streptomycin (pen-strep, Life Technologies). Cells were then incubated for 8 h at 37° C. and 5% CO2 with triplicates of CPMV, CPMV*, PS-CPMV*, or PS corresponding to 5.0 μM PS or normalized for nanoparticle concentration accordingly. […] Cell viability was determined using a LIVE/DEAD assay for mammalian cells (Thermo Fisher) following manufacturer's procedures for cell staining and using a Zeiss Axio Observer Z1 motorized FL inverted microscope for imaging. […]

B16F10 melanoma cells [1] = assay: LIVE/DEAD cell viability assay of melanoma cells; format: cell-based; settings: 5.0 μM, 8 hours, light 30 minutes
Text: The MTT assay is based on a yellow tetrazolium dye that is reduced to purple formazan via NAD(P)H-dependent oxidoreductase enzymes. This reduction is highly dependent on cellular metabolism in the mitochondria and is not high in cells with low cellular metabolic activity. Liu et al., Journal of neurochemistry, 69 (2), 581-93 (1997). Because photosensitizers are known to impact the functionality of the mitochondria, the MTT assay may be compromised as a result of impaired mitochondrial activity. Therefore, LIVE/DEAD cell viability assays were performed to further confirm therapeutic efficacy and cell killing. Cells were incubated with 5.0 μM of free Zn-EpPor or Zn-EpPorTMV, or corresponding controls, for 8 hours, washed, and illuminated for 30 minutes. This drug concentration was based on the MTT assay; it is over four times the IC50 value in B16F10 melanoma and should give maximal cell killing. The LIVE/DEAD assay was applied the next day, imaged, and images were analyzed using ImageJ to determine percent cell viability (FIG. 9B). […] On the contrary, cells exposed to both Zn-EpPor or Zn-EpPorTMV and light had 100% cell killing.
The staining procedure was as per manufacturer's recommendation.

B16F10 melanoma cells [2] = assay: Flow cytometry of cell uptake (Zn-EpPor fluorescence); format: cell-based; settings: 10^6 particles/cell or corresponding amount of free drug, 8 hours
Experimental: Cell binding and uptake of the PDT delivery system was measured using both flow cytometry and confocal microscopy. […] Cell uptake was measured as a function of Zn-EpPor fluorescence (FIG. 8A). […] These studies were complemented with confocal microscopy to determine the intracellular fate of Zn-EpPor delivered by TMV. Following an 8-hour incubation of B16F10 cells with Zn-EpPorTMV particles, cells were fixed and stained with wheat germ agglutinin. Confocal fluorescence microscopy confirmed that Zn-EpPor is both taken up by the cells, and also dispersed throughout the cytoplasm (FIG. 8B), allowing it to exert their mechanism of action. The intracellular distribution of the Zn-EpPor drug was consistent with intracellular release of the cargo. We hypothesize that TMV is taken up and trafficked to the endolysosome, as previously reported. Wen et al., Bioconjugate chemistry, 26 (1), 51-62 (2015). […]
Confluent B16F10 cells were removed using Hank's based cell dissociation buffer (ThermoFisher) and added to 96-well v-bottom plates (200 μL/well, 2.5×10^6 cells/mL). […] Cells were washed 2 times, then resuspended in FACS buffer and analyzed on a BD FACSAria flow cytometer. Live cells were gated and 10,000 events were recorded; all experiments were carried out in triplicate. Data were analyzed on FlowJo 8.6.3 software.

[3] = Storage in the fridge, visual examination; format: physicochemical; settings: stored in the fridge over a period of a month
B16F10 melanoma cells [4] = assay: MTT cell viability assay after white light illumination (Example II)
Experimental: Untreated cells and drug-free TMV carrier were used as controls. The TMV concentration was normalized to the drug-loaded concentration and corresponded to the highest amount of TMV used to determine the IC50 curves (FIG. 9A). Drug candidates and controls were incubated with B16F10 cells for 8 hours, washed, and then exposed to white light from a Vivitek D950HD projector under a rectangle (10.5 cm×11 cm) for 30 minutes. Following illumination, cells were returned to the incubator for 48 hours. Cell viability was assessed using an MTT cell viability assay and analyzed using GraphPad Prism.
Cell viability was assayed using MTT and LIVE/DEAD assays. Confluent cells were removed using 0.05% (w/v) trypsin-EDTA, added to 96-well plates (100 μL/well, 2×10^4 cells/mL), and grown overnight. Native TMV, drug loaded Zn-EpPorTMV, vs. free Zn-EpPor were added to cells using 0.025, 0.05, 0.1, 0.25, 0.5, 1.0, and 5.0 μM Zn-EpPor; cells were incubated for 8 hours at 37° C. and 5% CO2. Assays were done in triplicates and repeated at least twice. […] Cell viability was assessed using an MTT cell proliferation assay (ATCC); the procedure was as per manufacturer's recommendation. Alternatively, cell viability and cytotoxicity was determined using the LIVE/DEAD Viability/Cytotoxicity Kit for mammalian cells (ThermoFisher). […] Images were analyzed for percentage cell viability using ImageJ 1.47d.

C=Cc1c(C)c2cc3nc(c(CC(=O)N[C@@H](CC(=O)O)C(=O)O)c4[nH]c(cc5nc(cc1[nH]2)C(C)=C5CC)c(C)c4C(=O)O)[C@@H](CCC(=O)O)[C@@H]3C [Talaporfin, talaporfin]
IC50 (B16F10; B16F10, previously reported): 8.5 µM

porfimir sodium [Photofrin]
efficacy in pigmented melanoma (B16F10; melanin-heavy cells, such as the B16F10 cell line): ineffective

C#Cc1ccc(C2=C3C=CC(=N3)C(c3cc[n+](C)cc3)=c3ccc4[n]3[Zn][n]3c2ccc3C(c2cc[n+](C)cc2)=C2C=CC(=N2)C=4c2cc[n+](C)cc2)cc1.[I-].[I-].[I-] [Zn-EpPor, 5-(4-ethynylphenyl)-10,15,20-tris-(4-methylpyridin-4-ium-1-yl)porphyrin-zinc(II) triiodide]
elimination of macrophages after PDT (RAW 264.7 macrophages; 5.0 μM PS, 8 h uptake, light 30 min, staining next day): completely eliminating the macrophages
cytotoxicity in dark controls (RAW 264.7 macrophages; absence of light therapy): no cytotoxicity
cell killing (B16F10 melanoma cells [1]): 100%
mean fluorescence intensity (MFI) (B16F10 melanoma cells [2]): 956
dispersion on storage [3]: aggregation and sedimentation
IC50 (B16F10 melanoma cells [4]; 8 hours incubation, white light 30 minutes, MTT after 48 hours, concentration as Zn-EpPor): 0.54 µM
cell killing in the dark (B16F10 melanoma cells [4]; no illumination): no cell killing was observed
